Entries after “also recorded” stand apart in the source; their conditions may differ. Where a name gives a salt, the structure may show the parent alone.
Tests used:
[1] = tested on: TNFα; assay: Whole blood assay: inhibition of LPS-induced TNFα release (TNF ELISA); assay type: cell-based, human; conditions: for effect on TNF production or release (in words) / inhibition of TNF production at the upper range of the dose curve: 25% whole blood diluted in plasmalyte
Description: […]. […] The experiment was conducted at least 2 times in duplicates and the fitted representation above consists of the average of those experiments. The IC50 values were calculated using logistic analysis on Origin Software.
FIG. 4 illustrates a graph showing the inhibition of release of TNF α by terbutaline and salbutamol. This assay evaluated the inhibition of TNF production by salbutamol and terbutaline using the whole blood assay. This method utilized an LPS induction at 10 μg/ml in 25% whole blood diluted in plasmalyte. […] Higher doses were not evaluated because the equivalent mg/kg doses would be too high, therefore, limiting their practical use under therapeutic conditions. IC50 values were not calculated. […] The data and the fit were calculated using Origin Software.
FIG. 5 illustrates a graph showing the inhibition of TNF production by butoxamine, and induction of TNF release by atenolol and metoprolol. […].
This assay measured prazosin alone, and the combination of: prasozin/butoxamine, prasozin/butoxamine/terbutaline, prasozin/butoxamine/salbutamol, and prazosin/salbutamol. […].
We collected whole human blood in a polypropylene tube. Containing a final concentration of 10 units of heparin per ml of blood using gravity flow with 19-gauge needle. To prevent non-specific activation of cells, we used the blood within 30 minutes of draw. The blood was diluted with plasmalyte to 50%, 40%, 30%, 20%, and 10% concentrations. In a matrix based assay set up, each blood dilution was treated with various concentrations of LPS dosages ranging from 60 μg/ml, 10 μg/ml, 6 μg/ml, 1 μg/ml, 0.6 μg/ml, 0.1 μg/ml, and 0.06 μg/ml. The LPS treated blood was incubated at 37 degree in an incubator with continues rotation. Following the incubation, the blood was centrifuged and the plasma was evaluated for TNF quantification using the ELISA assay (BD Biosciences, Los Angeles, Calif.).
We initially tested the ability of LPS to produce TNF from monocytes, by adding various dilutions of LPS (60 μg, 10 μg, 6 μg, 1 μg, 0.6 μg, 0.1 μg, 0.06 μg) per ml of diluted blood (blood dilutions 50%, 40%, 20%, 10%, and 5%). Blood dilutions were made in the clinically relevant buffer “plasmalyte”. LPS treated blood was incubated at 37° C. for 2 hr. Following incubation, we separated the plasma samples by centrifugation. We evaluated the samples using TNF-ELISA. […] Relying on FIG. 1, we conducted a blood dilution curve with 10 μg/ml LPS (FIG. 2). Based on interpretation of FIGS. 1 and 2, we concluded that blood dilution of 20-25% would be ideal at an LPS dose of 10 μg/ml. Based on the FIG. 2 data, we found LPS causes a near linear increase of TNF production in 20% blood. […] If there is too much blood, there will be heavy concentrations of TNF production, exceeding the detection levels of the assay. Using this optimization data, we created a fixed method to measure the inhibition of TNF production or release with various drugs and drug combinations.
Blood was drawn from thirteen independent donors under an IRB approved protocol. […] The blood samples were spun and plasma evaluated for TNF production using TNF ELISA from BD Biosciences. […]. […] It could also provide a possible treatment for rheumatoid arthritis. […]

[2] = tested on: arthritis; conditions: cited from earlier work; for inhibition of inflammation in an arthritis model: in vivo
[3] = Body weight in mouse CIA model (gross measure of drug toxicity); conditions: CIA mice, days 18-35
[4] = tested on: knee and ankle joints; assay: Histology of knee and ankle joints after CIA; conditions: CIA mice
[5] = tested on: collagen induced arthritis; conditions: cited from earlier work
[6] = tested on: arthritis; conditions: rat arthritis model; cited from earlier work
[7] = CIA mice, same experimental protocol; cited from earlier work

COc1ccc(OC)c(C(O)C(C)NC(C)(C)C)c1 (racemic) [Butoxamine, DL-erythro-α-(2,5-dimethoxyphenyl)-β-t-butyl aminopropanol hydrochloride]
effect on TNF production or release (in words) ([1]; LPS 10 μg/ml): very little inhibition if at all
inhibition of TNF production at the upper range of the dose curve ([1]; LPS 10 μg/ml): ≤ 20%
inhibition of arthritis in animals (in words) ([2]; previous reports): potent inhibitor of arthritis in animals

CC(C)NCC(O)COc1ccc(CC(N)=O)cc1 (stereo not shown) [Atenolol, atenolol]
effect on TNF production or release (in words) ([1]; LPS 10 μg/ml): significant elevation in the TNF response; also recorded: activators of TNF release

COCCc1ccc(OCC(O)CNC(C)C)cc1 (stereo not shown) [Metoprolol, metoprolol]
effect on TNF production or release (in words) ([1]; LPS 10 μg/ml): significant elevation in the TNF response; also recorded: activators of TNF release

Cc1ccc(N(CC2=NCCN2)c2cccc(O)c2)cc1 [Phentolamine, phentolamine]
effect on TNF production or release (in words) ([1]; LPS 10 μg/ml): does not have the same level of inhibition as prazosin and yohimbine alone

COc1cc2nc(N3CCN(C(=O)c4ccco4)CC3)nc(N)c2cc1OC [Prazosin, prazosin]
drug concentration at which TNF activity is inhibited ([1]; LPS 10 μg/ml, 25% blood diluted in plasmalyte): 20 µg/mL
effect on TNF production or release (in words) ([1]; LPS 10 μg/ml): lowest IC50
inhibition of TNF production at the upper range of the dose curve ([1]; LPS 10 μg/ml): ~100%
inhibition of TNF at the upper range of the dose curve, thirteen donors ([1]; blood of thirteen independent donors, 37 degrees, 2 hours): ~100%
body weight change [3]: weight remained constant
body weight change ([3]; listed as NM2014): essentially unchanged
joint histology (Toluidine blue) [4]: prevents inflammation, bone and cartilage destruction, pannus formation and bone erosion

CC(C)(C)NCC(O)c1ccc(O)c(CO)c1 (stereo not shown) [Salbutamol, salbutamol]
severity of collagen-induced arthritis (in words) ([5]; mouse, in vivo): reduces the severity of collagen-induced arthritis
inhibition of inflammation in an arthritis model [2]: 50%

CC(C)(C)NCC(O)c1cc(O)cc(O)c1 (stereo not shown) [Terbutaline, terbutaline]
effect on TNF production or release (in words) ([1]; LPS 10 μg/ml): minimal effect
reduction of disease severity [6]: 50%
benefit in collagen induced arthritis ([5]; mice): 50%
inhibition of inflammation in an arthritis model [2]: 50%

COC(=O)[C@@H]1[C@H]2C[C@H]3c4[nH]c5ccccc5c4CCN3C[C@@H]2CC[C@@H]1O [Yohimbine, yohimbine]
IC50 ([1]; Homo sapiens, LPS 10 μg/ml, 25% blood diluted in plasmalyte, 37° C. 2 h): 70 to 100 mg/L
inhibition of TNF production at the upper range of the dose curve ([1]; LPS 10 μg/ml): 80%

Enbrel
body weight change, historical Enbrel data [7]: essentially unchanged
